Values after ≈ are worked out from the molar mass of the structure shown. Like-named read-outs stand apart in the source and are kept apart here.
Key:
[1] = molecular target: T1, full-length beta-Catenin (Uniprot ID P35222) (Homo sapiens, UniProt P35222); assay: Fluorescence polarization IC50 (beta-catenin / 5FAM-TCF4 10-53 competition); assay type: binding
T1 construct: 10 nM full-length beta-Catenin (Uniprot ID P35222)
T1 sequence (P35222 1-781): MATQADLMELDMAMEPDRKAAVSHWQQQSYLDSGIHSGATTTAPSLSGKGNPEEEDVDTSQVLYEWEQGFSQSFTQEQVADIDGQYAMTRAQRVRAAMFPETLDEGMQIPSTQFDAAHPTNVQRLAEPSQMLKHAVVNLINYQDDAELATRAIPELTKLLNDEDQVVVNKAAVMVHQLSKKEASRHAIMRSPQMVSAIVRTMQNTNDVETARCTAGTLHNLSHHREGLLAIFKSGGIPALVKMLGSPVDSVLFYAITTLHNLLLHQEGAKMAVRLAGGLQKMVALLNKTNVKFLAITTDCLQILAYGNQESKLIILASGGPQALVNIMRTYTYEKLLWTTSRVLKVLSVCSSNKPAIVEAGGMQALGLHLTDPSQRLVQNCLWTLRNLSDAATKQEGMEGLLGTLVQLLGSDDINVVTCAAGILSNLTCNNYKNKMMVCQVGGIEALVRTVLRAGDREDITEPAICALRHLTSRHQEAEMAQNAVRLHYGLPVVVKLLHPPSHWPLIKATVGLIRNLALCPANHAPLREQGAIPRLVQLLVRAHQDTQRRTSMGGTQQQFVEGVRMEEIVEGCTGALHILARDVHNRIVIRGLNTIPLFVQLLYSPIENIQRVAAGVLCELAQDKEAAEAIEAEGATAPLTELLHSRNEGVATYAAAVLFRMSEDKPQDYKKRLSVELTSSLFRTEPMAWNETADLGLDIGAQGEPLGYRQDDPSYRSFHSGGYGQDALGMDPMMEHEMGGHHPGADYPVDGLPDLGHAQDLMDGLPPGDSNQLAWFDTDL

CHI Log D procedure = assay type: physicochemical; settings: pH 7.4
Solubility in PBS = assay type: physicochemical
Procedure, shortened: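 PBS sample ultracentrifuged; supernatant run on HPLC vs. 50 μM peptide in DMSO standard. Solubility = (PBS peak area / DMSO peak area) × 50 uM.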

[2] = fluorescence polarization, read-out: beta-Catenin FP IC50

SMILES | IC50 [1, 2] [nM] | IC50 ([1]; read-out: FP EC50) [nM] | CHI Log D (CHI Log D procedure) | Solubility (Solubility in PBS) [µM]
CC[C@H](C)[C@@H]1NC(=O)[C@H](CC(=O)O)NC(=O)[C@]2(CC=CCCCC3(CCCC=CCCCCCC[C@@](C)(C(=O)N[C@@H](Cc4ccsc4)C(=O)N[C@@H](Cc4csc5ccccc45)C(=O)N[C@@H](Cc4c[nH]cn4)C(N)=O)NC(=O)[C@H](CC(N)=O)NC(=O)[C@H](Cc4ccccc4)NC(=O)[C@H](C)NC(=O)[C@H](C)NC(=O)[C@H](CC(=O)O)NC(=O)[C@H](CC(=O)O)NC3=O)NC1=O)CCCN2C(C)=O (stereo partly drawn) [I-555, Ac-PL3-Asp-Ile-B5-Asp-Asp-Ala-Ala-Phe-Asn-S8-3Thi-BztA-His-NH2] | 41 | 41 | 2.374 | 41 (≈ 76.7 µg/mL)
CC[C@H](C)[C@@H]1NC(=O)[C@H](CC(=O)O)NC(=O)[C@]2(CC=CCCCC3(CCCC=CCCCCCC[C@@](C)(C(=O)N[C@@H](Cc4ccsc4)C(=O)N[C@@H](Cc4csc5ccccc45)C(=O)N[C@@H](Cc4c[nH]cn4)C(N)=O)NC(=O)[C@H](CC(N)=O)NC(=O)[C@H](Cc4ccccc4)NC(=O)[C@H](C)NC(=O)[C@H](C)NC(=O)[C@H](CC(=O)O)NC(=O)[C@H](CC(=O)O)NC3=O)NC1=O)CCCN2C(C)=O (stereo partly drawn) [I-556, Ac-PL3-Asp-Ile-B5-Asp-Asp-Ala-Ala-Phe-Asn-S8-3Thi-BztA-His-NH2] | 20 | 20 | 2.435 | 39 (≈ 72.9 µg/mL)
CC[C@@H]1NC(=O)[C@H](CC(=O)O)NC(=O)[C@]2(CC=CCCCC3(CCCC=CCCCCCC[C@@](C)(C(=O)N[C@@H](Cc4ccccc4)C(=O)N[C@@H](Cc4csc5ccccc45)C(=O)N[C@@H](CCC(N)=O)C(N)=O)NC(=O)[C@H](CCC(N)=O)NC(=O)[C@H](Cc4ccccc4)NC(=O)[C@H](C)NC(=O)[C@H](C)NC(=O)[C@H](CCC(=O)O)NC(=O)[C@H](CC(=O)O)NC3=O)NC1=O)CCCN2C(C)=O (stereo partly drawn) [I-569, Ac-PL3-Asp-Abu-B5-Asp-Glu-Ala-Ala-Phe-Gln-S8-Phe-BztA-Gln-NH2] | 42 | 42 | 2.169 | 49 (≈ 90.9 µg/mL)
CC[C@H](C)[C@@H]1NC(=O)[C@H](CC(=O)O)NC(=O)[C@]2(CC=CCCCC3(CCCC=CCCCCCC[C@@](C)(C(=O)N[C@@H](Cc4ccccc4)C(=O)N[C@@H](Cc4csc5ccccc45)C(=O)N[C@@H](Cc4c[nH]cn4)C(N)=O)NC(=O)[C@H](CCC(N)=O)NC(=O)[C@H](Cc4ccccc4)NC(=O)[C@H](C)NC(=O)[C@H](C)NC(=O)[C@H](CC(=O)O)NC(=O)[C@H](CC(=O)O)NC3=O)NC1=O)CCCN2C(C)=O (stereo partly drawn) [I-580, Ac-PL3-Asp-Ile-B5-Asp-Asp-Ala-Ala-Phe-Gln-S8-Phe-BztA-His-NH2] | 114 | 114 | 2.436 | 24 (≈ 45.1 µg/mL)

The remaining lines, values ahead:

IC50 [1, 2] [nM] | IC50 ([1]; read-out: FP EC50) [nM] | CHI Log D (CHI Log D procedure) | Solubility (Solubility in PBS) [µM] | SMILES
34 | 34 | 2.437 | 14 (≈ 26.3 µg/mL) | CC(=O)N1CCC[C@]12CC=CCCCC1(CCCC=CCCCCCC[C@@](C)(C(=O)N[C@@H](Cc3ccccc3)C(=O)N[C@@H](Cc3csc4ccccc34)C(=O)N[C@@H](Cc3c[nH]cn3)C(N)=O)NC(=O)[C@H](CCC(N)=O)NC(=O)[C@H](Cc3ccccc3)NC(=O)[C@H](C)NC(=O)[C@H](C)NC(=O)[C@H](CC(=O)O)NC(=O)[C@H](CC(=O)O)NC1=O)NC(=O)[C@H](CC(C)C)NC(=O)[C@H](CC(=O)O)NC2=O (stereo partly drawn) [I-561, Ac-PL3-Asp-Leu-B5-Asp-Asp-Ala-Ala-Phe-Gln-S8-Phe-BztA-His-NH2]
21 | 21 | 2.21 | 46 (≈ 84.5 µg/mL) | CC[C@@H]1NC(=O)[C@H](CC(=O)O)NC(=O)[C@]2(CC=CCCCC3(CCCC=CCCCCCC[C@@](C)(C(=O)N[C@@H](Cc4ccccc4)C(=O)N[C@@H](Cc4csc5ccccc45)C(=O)N[C@@H](Cc4c[nH]cn4)C(N)=O)NC(=O)[C@H](CC(N)=O)NC(=O)[C@H](Cc4ccccc4)NC(=O)[C@H](C)NC(=O)[C@H](C)NC(=O)[C@H](CC(=O)O)NC(=O)[C@H](CC(=O)O)NC3=O)NC1=O)CCCN2C(C)=O (stereo partly drawn) [I-575, Ac-PL3-Asp-Abu-B5-Asp-Asp-Ala-Ala-Phe-Asn-S8-Phe-BztA-His-NH2]

Source: US20240116985A1, “STAPLED PEPTIDES AND METHODS THEREOF” (priority 2020, published 2024)
